These results are taken from PMC12471299, “Secondary Metabolites of the Marine Sponge-Derived Fungus Aspergillus subramanianii 1901NT-1.40.2 and Their Antimicrobial and Anticancer Activities” (Marine Drugs, 2025).

As a reminder, the MIC50 is the lowest concentration that inhibits either 50% of growth or 50% of the strains tested, depending on the study.

Data set [1] relates to Candida albicans KMM 455. Description: Biofilm formation assay (MTT). The format is cell-based. Conditions: C. albicans, 18 h. As for the experimental part:
(§1) The Gram-positive bacterial Staphylococcus aureus ATCC 21027, Gram-negative bacterial Escherichia coli VKPM (B-7935), and yeast-like fungal Candida albicans KMM 455 strains were fermented on solid medium Mueller Hinton broth with agar (16.0 g/L) in a Petri dish at 37 °C for 24 h. The antimicrobial activity of the compound was tested at concentrations ranging from 100 µM and lower. The effect of the compound on bacterial growth was estimated as described by. Gentamicin and amphotericin B were used as positive controls against S. aureus, E. coli, and C. albicans, and a 1% dimethyl sulfoxide (DMSO) solution in PBS was used as a negative control. The optical density of the bacterial suspension after 18 h was measured at λ = 620 nm. The effect of the compound on biofilm formation for 18 h was tested using MTT reagent (Sigma-Aldrich, St. Louis, MO, USA) in accordance with. The optical density of the obtained solution was measured at λ = 570 nm. A Multiskan FS spectrophotometer (Thermo Scientific Inc., Beverly, MA, USA) was used for both assays. The results were calculated as percentages of the control data and presented as minimal concentrations reduced by 50% of growth or biofilm formation (MIC50).

Data set [2] deals with Candida albicans KMM 455. The experiment in a line: Antimicrobial assay, growth inhibition (optical density). It is filed as cell-based. The following applies: Candida albicans, KMM455, 18 h, C. albicans, 18 h. As for the experimental part:
as §1

Data set [3] deals with Staphylococcus aureus ATCC 21027. Description: Biofilm formation assay (MTT). The format is cell-based. The following applies: S. aureus, 18 h. As for the experimental part: as §1
Data set [4] deals with Escherichia coli VKPM (B-7935). The experiment in a line: Biofilm formation assay (MTT). The following applies: E. coli, 18 h. The format is cell-based. As for the experimental part: as §1
For data set [5], the system named is Staphylococcus aureus ATCC 21027. The experiment in a line: Antimicrobial assay, growth inhibition (optical density). The format is cell-based. The following applies: S. aureus, 18 h; for MIC50: Staphylococcus aureus, ATCC21027, 18 h. As for the experimental part: as §1
For data set [6], the system named is Escherichia coli VKPM (B-7935). The description is as above. The format is cell-based. The following applies: E. coli, 18 h; for MIC50: Escherichia coli. The procedure:
as §1

Data set [7] concerns MCF-7 breast cancer cells. Description: Cell viability assay (MTT). It is filed as cell-based, human. From the text:
(§2) Rat cardiomyocyte H9c2 cells were kindly provided by Prof. Dr. Gunhild von Amsberg from the Martini-Klinik Prostate Cancer Center, University Hospital Hamburg-Eppendorf, Hamburg, Germany. The human HaCaT keratinocyte cell line was kindly provided by Prof. N. Fusenig (Cancer Research Centre, Heidelberg, Germany). Non-cancerous human breast epithelial MCF-10A cells were kindly provided by Dr. Irina Zhitnyak (N. N. Blokhin National Medical Research Center of Oncology, Moscow, Russia). Human breast cancer MCF-7 HTB-22 and MDA-MB-231 cells were obtained from the ATTC (Manassas, VA, USA).
(§3) H9c2 and HaCaT cells were cultured in DMEM with 10% fetal bovine serum and 1% penicillin/streptomycin (BioloT, St. Petersburg, Russia). MCF-7 and MDA-MB-231 cells were cultured in MEM (BioloT, St. Petersburg, Russia) with 10% fetal bovine serum (FBS) and 1% penicillin/streptomycin (BioloT, St. Petersburg, Russia). MCF 10A cells were cultured in DMEM F12 medium (BioloT, St. Petersburg, Russia) supplemented with 20% FBS, 20 ng/mL hrEGF (Sci-Store, Moscow, Russia), and 1% penicillin/streptomycin (BioloT, St. Petersburg, Russia). All cells were cultured at 37 °C in a humidified atmosphere containing 5% CO2.
(§4) H9c2 cells were seeded at a concentration of 3 × 10^3 cells/well. MCF-10A, MCF-7, and MDA-MB-231 cells were seeded at 5 × 10^3 cells/well, and HaCaT cells were seeded at 1 × 10^4 cells/well. The experiments were initiated after 24 h.
(§5) Compounds at concentrations up to 100 µM were added to the wells for 24h or 48 h, and the viability of the cells was measured using an MTT (3-(4,5-dimethylthiazol-2-yl)-2,5-diphenyltetrazolium bromide) assay, which was performed according to the manufacturer’s instructions (Sigma-Aldrich, Munich, Germany). […] DMSO was used as a control. The results are presented as percentages of the control data.

Data set [8] concerns MCF-10A breast epithelial cells. The experiment in a line: Cell viability assay (MTT). The format is cell-based, human. Conditions: MCF10A.
Source text: as §2, §3, §4, §5

The subject of the next data set is HaCaT keratinocytes. The experiment in a line: Cell viability assay (MTT). The format is cell-based, human.
Source text: as §2, §3, §4, §5

The test system of data set [9] is MDA-MB-231 breast cancer cells. The experiment in a line: Cell viability assay (MTT). It is filed as cell-based, human.
Source text: as §2, §3, §4, §5

For the next data set, the system named is H9c2 cardiomyocytes. The experiment in a line: Cell viability assay (MTT). It is filed as cell-based, rat.
Source text: as §2, §3, §4, §5

In brackets after ≈: the same amount, converted by molar mass. Several values for one entry are separate records, joined by “and”; a condition that tells them apart may be missing. Equal entries are not always repeated.

Regarding `C[C@@H]1[C@H](O)[C@@H](C)/C=C/C=C/C=C/C=C/C=C/C=C/C=C/[C@H](O[C@@H]2O[C@H](C)[C@@H](O)[C@H](N)[C@@H]2O)C[C@@H]2O[C@](O)(C[C@@H](O)C[C@@H](O)[C@H](O)CC[C@@H](O)C[C@@H](O)CC(=O)O[C@H]1C)C[C@H](O)[C@H]2C(=O)O` [Amphotericin B, reference compound], the “Biofilm formation, MIC50” value in the data set with Candida albicans KMM 455 [1] was found to be 1.38 ± 0.14 µM. The MIC50 in the data set with Candida albicans KMM 455 [2] was found to be 1.18 ± 0.15 µM (≈ 1.09 µg/mL).

Consider `Cc1c(C)c(O)c2c(c1C)C(C)(O)OC2=O` (centres unmarked) [Compound 3, sclerolide], for which the “Biofilm formation, MIC50” value is more than 100 µM in the data set with Candida albicans KMM 455 [1]; 31.14 µM and 31.14 ± 2.34 µM in data set [3]; 43.51 µM and 43.51 ± 4.03 µM in [4]. The MIC50 against Candida albicans KMM 455 [2] is more than 100 µM; in data set [5] it was 20.3 µM (≈ 4.52 µg/mL); in [6] it was 21.1 µM (≈ 4.68 µg/mL). The results for the “Growth inhibition, MIC50” value in data set [5] and in data set [6] were 20.34 ± 2.58 µM and 21.07 ± 2.11 µM, respectively. The cell viability is recorded as 107.2 ± 8.9 % of control in data set [7] (MCF-7, 24 h, 1.0 µM); 95.6 ± 2.4 % of control in [7] (MCF-7, 24 h, 10.0 µM); 70.2 ±5.5 % of control in data set [7] (MCF-7, 24 h, 100.0 µM); 83.8 ± 3.1 % of control in data set [7] (MCF-7, 48 h, 1.0 µM); 76.0 ± 2.6 % of control in [7] (MCF-7, 48 h, 10.0 µM); 55.1 ± 1.0 % of control in [7] (MCF-7, 48 h, 100.0 µM). In addition, the cell viability in data set [8] (24 h, 1.0 µM) is listed as 101.7 ± 1.3 % of control; in data set [8] (24 h, 10.0 µM) it was 92.2 ± 3.5 % of control; in data set [8] (24 h, 100.0 µM), 62.5 ± 2.2 % of control; in data set [8] (48 h, 1.0 µM), 101.6 ± 5.1 % of control; in data set [8] (48 h, 10.0 µM) it was 74.4 ± 2.4 % of control; in [8] (48 h, 100.0 µM), 47.5 ± 7.0 % of control. For the same compound, the cell viability in the data set with HaCaT keratinocytes (24 h, 1.0 µM) is given as 94.4 ± 5.9 % of control; in the data set with HaCaT keratinocytes (24 h, 10.0 µM), 100.2 ± 3.0 % of control; in the data set on HaCaT keratinocytes (24 h, 100.0 µM), 63.0 ± 8.6 % of control; in the data set with HaCaT keratinocytes (48 h, 1.0 µM) it was 96.8 ± 1.0 % of control; with HaCaT keratinocytes (48 h, 10.0 µM) it was 96.6 ± 4.1 % of control; in the data set on HaCaT keratinocytes (48 h, 100.0 µM), 69.4 ± 3.5 % of control. In addition, the cell viability is recorded as 99.8 ± 1.3 % of control in data set [9] (MDA-MB-231, 24 h, 1.0 µM); 100.6 ± 5.7 % of control in data set [9] (MDA-MB-231, 24 h, 10.0 µM); 68.6 ± 8.3 % of control in data set [9] (MDA-MB-231, 24 h, 100.0 µM); 107.6 ± 2.8 % of control in data set [9] (MDA-MB-231, 48 h, 1.0 µM); 99.0 ± 5.1 % of control in data set [9] (MDA-MB-231, 48 h, 10.0 µM); 60.9 ± 3.6 % of control in [9] (MDA-MB-231, 48 h, 100.0 µM). Further, the cell viability with H9c2 cardiomyocytes (H9c2, 24 h, 1.0 µM) was 81.1 ± 3.2 % of control; in the data set with H9c2 cardiomyocytes (H9c2, 24 h, 10.0 µM), 88.7 ± 4.4 % of control; in the data set with H9c2 cardiomyocytes (H9c2, 24 h, 100.0 µM), 74.6 ± 8.3 % of control; with H9c2 cardiomyocytes (H9c2, 48 h, 1.0 µM) it was 102.0 ± 5.5 % of control; in the data set on H9c2 cardiomyocytes (H9c2, 48 h, 10.0 µM), 102.7 ± 6.7 % of control; in the data set with H9c2 cardiomyocytes (H9c2, 48 h, 100.0 µM), 62.5 ± 4.6 % of control. For the same compound, the IC50 in data set [8] (Homo sapiens, MCF-10A, time not stated, read-out: half-maximal concentration (IC50), viability) is approximately 100 µM. Further, the decrease of viability was 30.0–37.5% in the data set with HaCaT keratinocytes (at 100 µM, range given for H9c2 and HaCaT together); 30.0–37.5% in the data set with H9c2 cardiomyocytes (H9c2, at 100 µM, range given for H9c2 and HaCaT together).

As to `CNC(C)C1CCC(N)C(OC2C(N)CC(N)C(OC3OCC(C)(O)C(NC)C3O)C2O)O1` (centres unmarked) [Gentamycin, reference compound], the entries for the “Biofilm formation, MIC50” value in data set [3] and in [4] were 4.34 ± 0.32 µM and 5.34 ± 0.50 µM, respectively. Also, the MIC50 in [5] came to 4.52 ± 0.98 µM (≈ 2.16 µg/mL); in [6] it was 5.03 ± 0.77 µM (≈ 2.4 µg/mL).
